PMC5349910, “Discovery of BPR1K871, a quinazoline based, multi-kinase inhibitor for the treatment of AML and solid tumors: Rational design, synthesis, in vitro and in vivo evaluation” (Oncotarget, 2016)

Legend:
[1] = test system: MESSA/DX cells; assay: Anti-proliferative activity, MESSA/DX; format: cell-based; conditions: Homo sapiens; Doxorubicin Drug Resisted MESSA
[2] = Acute toxicity in ICR mice; format: in vivo; conditions: ICR mice (n = 3), iv, 50 mg/kg once a day for five days
Text: Subsequently, based on the PK study, we evaluated the acute toxicity of BPR1K871 in ICR mice (n = 3) by iv administration.

[3] = target: FLT3^N841I (Homo sapiens, UniProt P36888, N841I); assay: KINOMEScan, FLT3 N841I; conditions: read-out: FLT3^N841I % control
[4] = target: T1, hERG (Homo sapiens, UniProt Q12809); assay: hERG inhibition assay; conditions: at 10 μM; performed by Ricerca Biosciences
T1 construct: Ricerca Biosciences, LLC
T1 sequence (Q12809 whole entry): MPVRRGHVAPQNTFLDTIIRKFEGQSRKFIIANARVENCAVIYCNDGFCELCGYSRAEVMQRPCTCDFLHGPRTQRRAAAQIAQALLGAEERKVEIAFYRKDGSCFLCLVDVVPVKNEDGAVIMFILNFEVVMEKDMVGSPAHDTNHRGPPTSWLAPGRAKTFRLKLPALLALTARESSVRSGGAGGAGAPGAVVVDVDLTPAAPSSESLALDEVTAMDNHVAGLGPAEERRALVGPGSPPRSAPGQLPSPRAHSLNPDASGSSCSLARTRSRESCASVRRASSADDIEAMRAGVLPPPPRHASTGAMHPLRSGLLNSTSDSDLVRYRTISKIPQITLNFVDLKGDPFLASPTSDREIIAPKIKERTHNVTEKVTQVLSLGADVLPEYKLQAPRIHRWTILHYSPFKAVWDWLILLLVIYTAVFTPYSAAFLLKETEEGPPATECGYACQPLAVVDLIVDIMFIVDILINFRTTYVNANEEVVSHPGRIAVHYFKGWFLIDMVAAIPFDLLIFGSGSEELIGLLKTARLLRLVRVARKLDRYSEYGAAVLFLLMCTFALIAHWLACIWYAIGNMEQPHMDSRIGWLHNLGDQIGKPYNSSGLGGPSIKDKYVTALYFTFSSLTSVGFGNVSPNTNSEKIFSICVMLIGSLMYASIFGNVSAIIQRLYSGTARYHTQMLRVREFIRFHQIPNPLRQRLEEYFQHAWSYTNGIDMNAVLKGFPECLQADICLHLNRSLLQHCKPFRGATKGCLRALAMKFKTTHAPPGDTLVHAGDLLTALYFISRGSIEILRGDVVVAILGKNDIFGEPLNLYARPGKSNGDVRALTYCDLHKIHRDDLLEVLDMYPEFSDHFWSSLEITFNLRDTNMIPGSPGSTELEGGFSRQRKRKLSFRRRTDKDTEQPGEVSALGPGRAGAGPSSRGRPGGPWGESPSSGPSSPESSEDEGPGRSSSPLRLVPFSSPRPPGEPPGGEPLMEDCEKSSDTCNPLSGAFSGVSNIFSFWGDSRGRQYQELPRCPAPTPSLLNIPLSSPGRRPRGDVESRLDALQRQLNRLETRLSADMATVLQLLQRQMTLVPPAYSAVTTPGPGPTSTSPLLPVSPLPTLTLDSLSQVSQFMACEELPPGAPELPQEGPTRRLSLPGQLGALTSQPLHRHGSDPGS
Experimental: Considering the in vivo efficacy in different cancer models, particularly in pancreatic cancer, it is worthwhile to further investigate BPR1K871; pancreatic and liver cancer are the most fatal of cancers and 5-year relative survival for patients with pancreatic cancer is reported to be just 8% [43, 44].
[45] hERG inhibition was performed by Ricerca Biosciences, LLC

[5] = target: FLT3 (Homo sapiens, UniProt P36888); assay: KINOMEScan, FLT3; conditions: read-out: FLT3 % control
[6] = Microsomal stability assay, human; format: in vitro ADME
[7] = target: AURKB (Homo sapiens, UniProt Q96GD4); assay: AURKB inhibition assay (Kinase-Glo); format: biochemical; set-up: full length His-tagged Aurora-B (residues M1∼A344); His; purchased Invitrogen PV6130; conditions: mean of at least two independent experiments
AURKB, sequence (Q96GD4 whole entry): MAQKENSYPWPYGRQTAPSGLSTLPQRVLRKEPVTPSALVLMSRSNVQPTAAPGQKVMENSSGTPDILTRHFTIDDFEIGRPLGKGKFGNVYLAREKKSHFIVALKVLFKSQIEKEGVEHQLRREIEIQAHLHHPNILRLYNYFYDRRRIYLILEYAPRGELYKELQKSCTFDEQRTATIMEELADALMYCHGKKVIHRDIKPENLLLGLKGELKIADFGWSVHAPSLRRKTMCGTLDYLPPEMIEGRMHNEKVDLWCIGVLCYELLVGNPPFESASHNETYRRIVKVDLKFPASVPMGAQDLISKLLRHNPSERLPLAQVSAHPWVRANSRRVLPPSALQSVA
Experimental: AURKB assay was conducted as previously described. Briefly, the recombinant full length His-tagged Aurora-B (residues M1∼A344) was purchased from Invitrogen (Catalog number: PV6130). The kinase assay was carried out in 96-well plates with the tested compound in reaction solution (50 mM Tris-HCl pH 7.4, 10 mM NaCl, 10 mM MgCl2, 0.01% BSA, 5 mM ATP, 1 mM DTT and 15 mM tetra(LRRASLG) peptide, and 40 ng recombinant Aurora-B) at 30°C for 180 min.
Following incubation, 50 μL Kinase-Glo Plus Reagent (Promega, Madison, WI, USA) was added, and the mixture was incubated at 25°C for 20 min. A 70 μL aliquot of each reaction mixture was transferred to a black microliter plate, and luminescence was measured on a Wallac Vector 1420 multilabel counter (PerkinElmer, Shelton, CT, USA).

[8] = test system: HCT-116 cells; assay: Anti-proliferative activity, HCT-116; format: cell-based, human; conditions: HCT-116; Human Colon Cancer; supplement values ± SEM; read-out: HCT-116 EC50
[9] = target: ABL1^T315I (Homo sapiens, UniProt P00519, T315I); assay: KINOMEScan, ABL1 T315I; conditions: read-out: ABL1^T315I % control

CN(C)CCCOc1ccc2c(NCCc3cnc(NC(=O)Nc4cccc(Cl)c4)s3)ncnc2c1 [BPR1K871, 1-(3-Chlorophenyl)-3-(5-(2-((7-(3-(dimethylamino)propoxy)quinazolin-4-yl)amino)ethyl)thiazol-2-yl)urea]
EC50 [1]: 6900 nM | acute toxicity (tolerability) [2]: well tolerated | remaining binding at 1 µM [3]: < 5.2% | hERG inhibition [4]: 66% | remaining binding at 1 µM [5]: 0.2% | microsomal stability, remaining at 30 min [6]: > 80% | IC50 [7]: 13 nM | EC50 [8]: 141 nM | remaining binding at 1 µM [9]: < 4.4%
